Tests used:
[1] = tested on: 9L glial tumor cells mixed with PA317 fibroblasts expressing HSV-tk; assay: GCV tumor toxicity, co-injected tumor cells and HSV-tk PA317 fibroblasts (Example 1); type: in vivo, athymic BALB/C mice; conditions: GCV 25 mg/kg BID 7 days; tumors removed 14 days after start of GCV; 9L (high coupling) vs C6 (low coupling); FIG. 3
Method: The HSV-tk gene was stably cloned into a PA/317 fibroblasts as described in Mol. Cell. Biol. 6:2895-2902 (1986) and New Eng. J. Med. 232:570-578 (1990). Athymic (immune-incompetent) BALB/C mice were injected subcutaneously with mixtures of: 1) 1×10^7 tumor cells known to have either high (9L glial tumor cells) or low (C6 glial tumor cells) levels of gap junction mediated intercellular transport, and 2) 1×10^7 immortalized mouse fibroblasts (PA317 cells) engineered to express HSV-tk. The mixtures of inoculated cells were allowed to grow into tumors over a period of 7-14 days (the time for detectable tumor formation varied depending on the identity and number of injected cells). The tumor-bearing animals were then treated for 7 days with GCV (25 mg/kg, BID) or with phosphate buffeted saline (PBS). Tumor size was periodically monitored.
14 days following the initiation of GCV treatment the tumors were removed. FIG. 3 summarizes the average weight of tumors following their removal. […] Thus, tumor toxicity was greater in tumors with higher levels of gap junction mediated intercellular transport.

9L glial tumor cells = assay: GCV therapy after injecting HSV-tk+ PA317 fibroblasts into pre-existing tumors (Example 2); type: in vivo, athymic mice; conditions: GCV 25 mg/kg BID 7 days from 24 h after fibroblast injection; tumors weighed 14 days after start; FIG. 4
Method: 5 athymic (immuno-incompetent) mice were injected subcutaneously with 1×10^7 tumor cells known to have either high (9L glial tumor cells) or low (C6 glial tumor cells) levels of gap junction mediated intercellular transport. 1×10^7 HSV-tk^+ fibroblasts (PA317 cells) were injected into the center of tumors that were formed. GCV therapy (25 mg/kg, BID) was commenced 24 hours later and continued for 7 days. 14 days following the initiation of GCV treatment the tumors were removed and weighed.
These findings indicate the importance of gap junction mediated transport for the bystander killing of tumor cells.

[2] = tested on: 9L tumor cells mixed with HSV-tk+ fibroblasts expressing connexin43; assay: GCV treatment of 9L tumors with HSV-tk+ fibroblasts expressing connexin43 (Example 4); type: in vivo, athymic mice
Method: (§1) 5 athymic (immuno-incompetent) mice were injected subcutaneously with mixtures of 1×10^7 9L tumor cells and either immortalized connexin43^- mouse fibroblasts engineered to express HSV-tk (5 mice) or immortalized mouse fibroblasts from normal mice which express connexin 43 and had also been engineered to express HSV-tk (5 mice). The inoculated cells were allowed to grow into tumors. The tumor-bearing animals were treated with GCV (25 mg/kg) for 7 days. Tumor size was monitored and 14 days following the initiation of GCV treatment the tumors were removed. In a parallel experiment, animals injected with a mixture of 1×10^79L tumor cells and with immortalized connexin43^- mouse fibroblasts engineered to express HSV-tk were mock-treated with sham injections of phosphate buffeted saline (PBS) lacking GCV.
Of the 5 animals with tumors consisting of 9L cells and HSV-tk^+ fibroblasts expressing connexin43, only 3 animals still had detectable tumors when examined 7 days after the completion of GCV therapy. […] A matched control group of 5 animals which received sham injections of phosphate buffeted saline (PBS) instead of GCV all had tumors 7 days after the completion of this "sham treatment".

[3] = tested on: 9L tumor cells mixed with HSV-tk+ connexin43- fibroblasts; assay: GCV treatment of 9L tumors with HSV-tk+ connexin43- fibroblasts (Example 4); type: in vivo, athymic mice
Method: as §1
Two other groups of 5 animals inoculated with mixtures of 9L cells and HSV-tk^+ fibroblasts derived from cells lacking any connexin43 genes were identically treated.

## Nc1nc(O)c2ncn(COC(CO)CO)c2n1 [GCV, Ganciclovir]
[1]
  tumor size (average weight of tumors) versus C6 tumors treated with GCV: significantly smaller
9L glial tumor cells
  effect of GCV treatment on tumor weight, 9L versus C6 tumors: greater in 9L cells
[2]; 7 days after completion of GCV therapy, 5 animals in group
  animals with detectable tumors (of 5): 3 animals
[2]; GCV 25 mg/kg 7 days, 7 days after completion of GCV therapy, PBS sham control 4.35 g
  average tumor weight: 0.63 g
[2]; GCV 25 mg/kg 7 days, fibroblasts with normal connexin 43 genes, FIG. 6
  therapeutic effect of GCV administration against tumors: highly therapeutic effect
[3]; GCV 25 mg/kg 7 days, fibroblasts with connexin genes deleted, FIG. 6
  therapeutic effect of GCV administration against tumors: not effective
[3]; after 7 days of GCV treatment, 5 animals in group
  animals with tumors (of 5): 5 animals
[3]; after 7 days of GCV treatment, group without GCV 5.68 g
  average tumor weight: 5.43 g

Reference: US6149904A, “Method for inhibiting tumor cell growth by administering to tumor cells expressing a nucleic acid encoding a connexin and a pro-drug” (The Regents of the University of California, priority 1997, dated 2000)
